Measurements published in patent US11008323B2, “Substituted tricyclic 1,4-benzodiazepinone derivatives as allosteric modulators of group II metabotropic glutamate receptors” (Domain Therapeutics, priority 2015, dated 2021).
Structures can show the parent of a compound that is named as a salt.

Experiments:
human mGluR3 (hmGluR3) = target: T1, human mGluR3 (hmGluR3) (Homo sapiens, UniProt Q14832); experiment: Human mGluR3 positive allosteric modulator evaluation using Ca++ functional assay; format: cell-based; details: hmGluR3 transiently over-expressed in HEK-293 cells; stimulated by EC50 glutamate concentration; intracellular Ca2+ (Fluo4AM, FLIPR Tetra)
T1 construct: expressed in transfected cells; host or cells: HEK-293 cells, transient co-transfection by electroporation
T1 sequence (Q14832 23-879): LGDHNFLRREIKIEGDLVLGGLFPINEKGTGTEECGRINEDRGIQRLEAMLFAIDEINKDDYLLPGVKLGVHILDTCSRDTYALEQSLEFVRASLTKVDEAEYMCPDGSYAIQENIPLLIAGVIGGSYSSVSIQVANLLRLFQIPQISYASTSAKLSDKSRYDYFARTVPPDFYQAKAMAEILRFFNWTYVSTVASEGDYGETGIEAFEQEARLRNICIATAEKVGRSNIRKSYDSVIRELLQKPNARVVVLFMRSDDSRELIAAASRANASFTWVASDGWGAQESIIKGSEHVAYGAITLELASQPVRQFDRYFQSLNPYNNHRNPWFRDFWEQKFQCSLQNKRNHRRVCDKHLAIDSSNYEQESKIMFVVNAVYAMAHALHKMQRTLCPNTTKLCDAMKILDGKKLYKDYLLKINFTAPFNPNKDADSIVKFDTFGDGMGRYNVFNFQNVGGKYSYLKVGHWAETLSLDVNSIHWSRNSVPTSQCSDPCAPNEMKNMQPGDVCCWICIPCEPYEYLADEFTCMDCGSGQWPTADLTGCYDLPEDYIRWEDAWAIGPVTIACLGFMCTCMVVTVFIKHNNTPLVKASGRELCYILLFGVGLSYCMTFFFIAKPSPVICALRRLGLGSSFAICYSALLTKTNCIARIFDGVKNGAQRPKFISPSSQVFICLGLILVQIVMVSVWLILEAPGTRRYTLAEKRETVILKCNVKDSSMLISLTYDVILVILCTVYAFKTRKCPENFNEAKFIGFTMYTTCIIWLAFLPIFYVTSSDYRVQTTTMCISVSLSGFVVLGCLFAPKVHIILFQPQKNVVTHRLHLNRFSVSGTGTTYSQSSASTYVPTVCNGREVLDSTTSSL
Procedure, shortened: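 HEK-293 cells transiently co-expressing hmGluR3, a chimeric G protein and two glutamate transporters; Fluo4 calcium read on FLIPR. Compound alone for 10 min (agonist), then EC50 glutamate for 3 min (PAM); 20-point curves gave EC50, duplicate, two independent runs.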

Row | Structure (SMILES) | melting point [°C] | EC50 (human mGluR3 (hmGluR3)) [nM]
1 | Cc1cc(-c2ccc3c(c2)-n2cccc2C(=O)N(C)C32CC2)ccn1 (as salt: hydrochloride) [Example 26, 5-Methyl-9-(2-methylpyridin-4-yl)-spiro[benzo[f]pyrrolo[1,2-a][1,4]diazepine-6,1′-cyclopropan]-4(5H)-one] | 183 to 193 | –
2 | CN1C(=O)c2cccn2-c2cc(-c3ccc4nccn4c3)ccc2C12CC2 [Example 41, 5-Methyl-9-(imidazo[1,2-a]pyridin-6-yl)-spiro[benzo[f]pyrrolo[1,2-a][1,4]diazepine-6,1′-cyclopropan]-4(5H)-one] | – | < 100
3 | Cc1ncccc1-c1ccc2c(c1)-n1cc(-c3ccccc3)cc1C(=O)N(C)C21CC1 [Example 95, 5-Methyl-2-phenyl-9-(2-methyl-pyridin-3-yl)-spiro[benzo[f]pyrrolo[1,2-a][1,4]diazepine-6,1′-cyclopropan]-4(5H)-one] | – | < 100
4 | Cc1ccc(-c2ccc3c(c2)-n2cc(Br)cc2C(=O)N(C)C32CC2)cn1 [Example 18, 2-Bromo-5-methyl-9-(6-methyl-pyridin-3-yl)-spiro[benzo[f]pyrrolo[1,2-a][1,4]diazepine-6,1′-cyclopropan]-4(5H)-one] | – | < 100
5 | CN1C(=O)c2cc(-c3nnco3)cn2-c2cc(-c3ccc(Cl)nc3)ccc2C12CC2 [Example 191] | – | < 100
6 | Cc1ncccc1-c1ccc2c(c1)-n1cccc1C(=O)N(C)C2(C)C [Example 223, 5,6,6-Trimethyl-9-(2-methyl-pyridin-3-yl)-5,6-dihydro-benzo[f]pyrrolo[1,2-a][1,4]diazepin-4-one] | – | 100 to 1000
7 | Cc1cnccc1-c1ccc2c(c1)-n1cccc1C(=O)N(C)C21CC1 [Example 38, 5-Methyl-9-(3-methylpyridin-4-yl)-spiro[benzo[f]pyrrolo[1,2-a][1,4]diazepine-6,1′-cyclopropan]-4(5H)-one] | – | 100 to 1000
8 | Cc1ncccc1-c1ccc2c(c1)-n1cc(-c3ccc(F)cc3)cc1C(=O)N(C)C21CC1 [Example 150] | – | 100 to 1000
9 | CCc1ncccc1-c1ccc2c(c1)-n1cccc1C(=O)N(C)C21CC1 [Example 24, 5-Methyl-9-(2-ethylpyridin-3-yl)-spiro[benzo[f]pyrrolo[1,2-a][1,4]diazepine-6,1′-cyclopropan]-4(5H)-one] | – | 100 to 1000
10 | CCc1ncccc1-c1ccc2c(c1)-n1cc(-c3ccccc3F)cc1C(=O)N(C)C21CC1 [Example 162] | – | < 100
11 | Cc1cc2n(c1)-c1cc(-c3cccnc3C)ccc1C1(CC1)N(C)C2=O [Example 144] | – | < 100
12 | CN1C(=O)c2cc(-c3ccccc3)cn2-c2cc(-c3ccc(N)nc3)ccc2C12CC2 [Example 96, 5-Methyl-2-phenyl-9-(6-amino-pyridin-3-yl)-spiro[benzo[f]pyrrolo[1,2-a][1,4]diazepine-6,1′-cyclopropan]-4(5H)-one] | – | 100 to 1000
13 | Cc1ncccc1-c1ccc2c(c1)N1CCCC1C(=O)N(C)C21CC1 (stereo not shown) [Example 209, 5-Methyl-9-(2-methylpyridin-3-yl)-1,2,3,3a-tetrahydro-spiro[benzo[f]pyrrolo[1,2-a][1,4]diazepine-6,1′-cyclopropan]-4(5H)-one] | – | > 1000
14 | Cc1ncccc1-c1ccc2c(c1)-n1cc(-c3cc[nH]n3)cc1C(=O)N(C)C21CC1 [Example 146] | – | < 100
15 | CN1C(=O)c2cccn2-c2cc(-c3cc(F)ccn3)ccc2C12CC2 [Example 57, 5-Methyl-9-(4-fluoropyridin-2-yl)-spiro[benzo[f]pyrrolo[1,2-a][1,4]diazepine-6,1′-cyclopropan]-4(5H)-one] | – | 100 to 1000
16 | Cc1ncccc1-c1cc2c(cc1F)C1(CC1)N(C)C(=O)c1cccn1-2 [Example 77, 8-Fluoro-5-methyl-9-(2-methyl-pyridin-3-yl)-spiro[benzo[f]pyrrolo[1,2-a][1,4]diazepine-6,1′-cyclopropan]-4(5H)-one] | – | 100 to 1000
